Data on 20 compounds can be found in patent US11667730B2, “Oxime ester compound and photopolymerization initiator containing the same” (ADEKA CORPORATION, priority 2006, dated 2023).

Data set [1] can be described thus: Solubility of oxime ester compound in solvent. It counts as physicochemical. The conditions noted are these: solvent PGM-Ac: Propylene glycol-1-monomethyl ether-2-acetate. As to the method: When used as a photopolymerization initiator, they dissolve in propylene glycol-1-monomethyl ether-2-acetate or cyclohexanone as a solvent to a concentration of 1% by mass or higher, to satisfy the requirement as a photopolymerization initiator. The solubility measurement is preferably made at 20° to 30° C.

The nature of data set [2]: Solubility of oxime ester compound in solvent. It is filed as physicochemical. The conditions noted are these: solvent CHN: cyclohexanone (footnote).

The structures appear in SMILES notation.

On to `CCn1c2ccc(/C(=N/OC(C)=O)c3ccc(OC(C)COC)cc3C)cc2c2cc([N+](=O)[O-])ccc21` (stereo not shown) [compound 33], for which, in data set [1], the “Solubility PGM-Ac” value is on record as 5.1%. Moreover, the “Solubility CHN” value in data set [2] worked out at 27%.

Turning to `CCCCCCCCCCCCCCCCn1c2ccc(/C(C)=N/OC(C)=O)cc2c2cc([N+](=O)[O-])ccc21` [compound 47], the “Solubility PGM-Ac” value in data set [1] was 0.3%. In addition, the “Solubility CHN” value in data set [2] was determined as 5.3%.

Turning to `CCCCC(CC)Cn1c2ccc(/C(Cc3ccccc3)=N/OC(C)=O)cc2c2cc([N+](=O)[O-])ccc21` (stereo not shown) [compound 51], in data set [1], the “Solubility PGM-Ac” value is 1.5%. Also, the “Solubility CHN” value in data set [2] turned out to be 13%.

On to `CCCCC(CC)Cn1c2ccc(/C(=N/OC(C)=O)c3ccc(F)cc3C)cc2c2cc([N+](=O)[O-])ccc21` (stereo not shown) [compound 58], for which the “Solubility PGM-Ac” value in data set [1] was found to be 1.2%. For the same compound, the “Solubility CHN” value in data set [2] is recorded as 7.6%.

For the compound `CCCCC(CC)Cn1c2ccc(/C(=N/OC(C)=O)c3ccc(C(C)(C)C)cc3)cc2c2cc([N+](=O)[O-])ccc21` (stereo not shown) [compound 53], in data set [1], the “Solubility PGM-Ac” value was 5.0%. Besides, the “Solubility CHN” value in data set [2] amounted to 24%.

In the case of `CCCCCCCCCCCCCCn1c2ccc(/C(C)=N/OC(C)=O)cc2c2cc([N+](=O)[O-])ccc21` [compound 46], in data set [1], the “Solubility PGM-Ac” value is reported as 0.5%. In addition, in data set [2], the “Solubility CHN” value is reported as 5.0%.

Consider `CCCCCCCCCCCCn1c2ccc(/C(C)=N/OC(C)=O)cc2c2cc([N+](=O)[O-])ccc21` [compound 45], for which, in data set [1], the “Solubility PGM-Ac” value amounted to 0.4%. Moreover, in data set [2], the “Solubility CHN” value worked out at 7.2%.

As for `CCn1c2ccc(/C(C)=N/OC(C)=O)cc2c2cc([N+](=O)[O-])ccc21` [compound 3], the “Solubility PGM-Ac” value in data set [1] worked out at 0.12%. Further, the “Solubility CHN” value in data set [2] is recorded as 0.80%.

Take `CCCCCCCCn1c2ccc(/C(C)=N/OC(C)=O)cc2c2cc([N+](=O)[O-])ccc21` [compound 2]: the “Solubility PGM-Ac” value in data set [1] is on record as 1.4%. In data set [2], the “Solubility CHN” value is listed as 9.2%.

Take `CCCCC(CC)Cn1c2ccc(/C(=N/OC(C)=O)c3ccc(OCC)cc3OCC)cc2c2cc([N+](=O)[O-])ccc21` (stereo not shown) [compound 56]: the “Solubility PGM-Ac” value in data set [1] came out at 3.6%. Further, the “Solubility CHN” value in data set [2] is 23%.

Take `CCCCC(CC)Cn1c2ccc(/C(C)=N/OC(C)=O)cc2c2cc([N+](=O)[O-])ccc21` (stereo not shown) [Compound No. 1]: the “Solubility PGM-Ac” value in data set [1] is 4.1%. For the same compound, the “Solubility CHN” value in data set [2] amounted to 18.9%.

For `CCCCCCCCCCC/C(=N\OC(C)=O)c1ccc2c(c1)c1cc([N+](=O)[O-])ccc1n2CC(CC)CCCC` (stereo not shown) [compound 50], the “Solubility PGM-Ac” value in data set [1] turned out to be 6.0%. In addition, in data set [2], the “Solubility CHN” value was determined as 45%.

`CCCCC(CC)Cn1c2ccc(/C(=N/OC(C)=O)c3ccccc3OCCOC)cc2c2cc([N+](=O)[O-])ccc21` (stereo not shown) [compound 55]: in data set [1], the “Solubility PGM-Ac” value is listed as 1.2%. The “Solubility CHN” value in data set [2] was 3.2%.

With `CCn1c2ccc(/C(=N/OC(C)=O)c3ccc(OC(C)C)cc3OC(C)C)cc2c2cc([N+](=O)[O-])ccc21` [compound 57], the “Solubility PGM-Ac” value in data set [1] was 2.4%. For the same compound, in data set [2], the “Solubility CHN” value worked out at 12%.

For `CCOCCn1c2ccc(/C(C)=N/OC(C)=O)cc2c2cc([N+](=O)[O-])ccc21` [compound 7], in data set [1], the “Solubility PGM-Ac” value is 0.38%. Besides, the “Solubility CHN” value in data set [2] was found to be 2.4%.

In the case of `COCC(C)OC(=O)CCCCCn1c2ccc(/C(C)=N/OC(C)=O)cc2c2cc([N+](=O)[O-])ccc21` (stereo not shown) [compound 12], in data set [1], the “Solubility PGM-Ac” value is 25%. The “Solubility CHN” value in data set [2] was 31%.

Take `CCCCCCC/C(=N\OC(C)=O)c1ccc2c(c1)c1cc([N+](=O)[O-])ccc1n2CC(CC)CCCC` (stereo not shown) [compound 48]: the “Solubility PGM-Ac” value in data set [1] is given as 5.0%. Further, the “Solubility CHN” value in data set [2] amounted to 42%.

For `CCCCC(CC)Cn1c2ccc(/C(=N/OC(C)=O)c3ccc(OC(C)COC)cc3)cc2c2cc([N+](=O)[O-])ccc21` (stereo not shown) [Compound No. 54], the “Solubility PGM-Ac” value in data set [1] is listed as 20%. Further, in data set [2], the “Solubility CHN” value is given as 14%.

In the case of `COCC(C)OC(=O)Cn1c2ccc(/C(C)=N/OC(C)=O)cc2c2cc([N+](=O)[O-])ccc21` (stereo not shown) [compound 10], in data set [1], the “Solubility PGM-Ac” value came out at 0.091%. The “Solubility CHN” value in data set [2] turned out to be 0.54%.

For `C=CC(=O)OCCn1c2ccc(/C(CCCCCCCCCCC)=N/OC(C)=O)cc2c2cc([N+](=O)[O-])ccc21` [compound 20], in data set [1], the “Solubility PGM-Ac” value stood at 0.16%. Moreover, the “Solubility CHN” value in data set [2] came out at 3.7%.
